Source: patent US5843941A, “Ras farnesyl transferase inhibitors” (Genentech, Inc., priority 1994, dated 1998)

How the values were obtained:
[1] = system: src-transformed rat-1 fibroblasts; assay: Changes in morphology of src-transformed cells; format: cell-based; settings: FIG. 6C/6D
Protocol: (§1) Compound 27A (denoted as BG269A in the figure) and compound 27B (denoted as BG269B in the figure) were added at 250 μM to test whether these compounds would induce reversion to a more normal phenotype as had been previously shown with microinjection of anti-Ras antibodies (see Feramisco, J. R. et al Nature 314, 639 (1985)). The H-ras transformed cells, denoted as rat 2.2 cells, were generated by transfection of rat-1 fibroblasts as described (see Seeburg, P. H., Colby, W. W., Capon, D. J., Goeddel, D. V., and Levinson, A. D. Nature 312,71 (1984)). Cells that overgrew the monolayer were extracted and plated onto agar to obtain a cell line displaying a fully transformed phenotype. Untransformed rat-1 fibroblasts and src-transformed rat-1 fibroblasts were also treated. The src-transformed cells were generated by co-transfection of rat-1 fibroblasts with pSV3.Neo.src, a vector containing the gene for src as well as the gene that confers G418 resistance, both under control of SV40 early promoters. G418-resistant cell clones that diplayed a transformed phenotype were used to generate the cell line. On day 0, cells were plated in monolayer culture at 3×10^3 cells per well (24-well plates) in 1 ml DMEM supplemented with 10% FCS, 100 U/ml penicillin, 10 μg/ml streptomycin, 2% DMSO, and 0.5 mM DTT with and without 200 μM inhibitor. On day 3, the cells were refed with the same medium. […]

[2] = system: H-ras(Val12)-transformed rat-1 fibroblasts (rat 2.2 cells); assay: Changes in morphology of H-ras-transformed cells; format: cell-based; settings: 5 days; FIG. 6A/6B
Protocol: Compound 27A (denoted as BG269A in the figure) and compound 27B (denoted as BG269B in the figure) were added at 250 μM to test whether these compounds would induce reversion to a more normal phenotype as had been previously shown with microinjection of anti-Ras antibodies (see Feramisco, J. R. et al Nature 314, 639 (1985)). The H-ras transformed cells, denoted as rat 2.2 cells, were generated by transfection of rat-1 fibroblasts as described (see Seeburg, P. H., Colby, W. W., Capon, D. J., Goeddel, D. V., and Levinson, A. D. Nature 312,71 (1984)). Cells that overgrew the monolayer were extracted and plated onto agar to obtain a cell line displaying a fully transformed phenotype. Untransformed rat-1 fibroblasts and src-transformed rat-1 fibroblasts were also treated. The src-transformed cells were generated by co-transfection of rat-1 fibroblasts with pSV3.Neo.src, a vector containing the gene for src as well as the gene that confers G418 resistance, both under control of SV40 early promoters. G418-resistant cell clones that diplayed a transformed phenotype were used to generate the cell line. On day 0, cells were plated in monolayer culture at 3×10^3 cells per well (24-well plates) in 1 ml DMEM supplemented with 10% FCS, 100 U/ml penicillin, 10 μg/ml streptomycin, 2% DMSO, and 0.5 mM DTT with and without 200 μM inhibitor. On day 3, the cells were refed with the same medium. On day 5, the cells were photographed under contrast at a magnification of 100X. […] This change in morphology is remarkably similar to that seen following injection of anti-ras antibodies into ras-transformed cells (see Feramisco, J. R. et al Nature 314, 639 (1985)). Rat-1 fibroblasts transformed with the src oncogene also grew in a multilayered pattern (FIG. 6C), but this was not affected by compound 27A or compound 27B (FIG. 6D).

[3] = system: Ras proteins in Met18b-2 cells; assay: Incorporation of [3H]mevalonate into immunoprecipitated Ras proteins in Met18b-2 cells; format: cell-based, Chinese hamster; settings: FIG. 5
Protocol: In each experiment, aliquots of the Triton X-100 fraction (300 μg protein, prepared as described above) were incubated with 1 μg anti-Ras monoclonal antibody (Oncogene Sciences, Inc.) overnight at 4° C. on a rotating platform. Immune complexes were precipitated by addition of 25 μl Protein A-agarose suspension that had been pre-coated with goat anti-rat IgG (Oncogene Sciences, Inc.) according to the manufacturer's instructions. After a 30 min incubation at 4° C., the agarose beads were pelleted by centrifugation and washed 5 times with 1 ml each of wash solution (50 mM Tris-HCl, 50 mM NaCl, 0.5% (w/v) deoxycholate, 0.5% (v/v) Nonidet P-40, and 0.1% (w/v) SDS at pH 7.5). 75 μl of 1X SDS sample buffer was added and each sample heated for 5 min at 95° C. before electrophoresis as above.

[4] = system: untransformed rat-1 fibroblasts; assay: Changes in morphology of untransformed cells; format: cell-based; settings: FIG. 6E and F
Protocol: as §1

[5] = system: farnesylated proteins F1, F2 and F3 in Met18b-2 cells; assay: Inhibition of intracellular farnesylation in intact Met18b-2 cells, Triton-soluble proteins F1, F2, F3; format: cell-based, Chinese hamster; settings: 250 μM; FIG. 3
Description: (§2) To study farnesylation in intact cells we used Met18b-2 cells, a line of Chinese hamster ovary (CHO) cells that takes up [3H]mevalonate efficiently (see Faust, J., and Krieger, M. J. Biol. Chem. 262, 1966 (1987)) owing to the production of a mevalonate transport protein (see Kim, C. M., Goldstein, J. L., Brown, M. S. J. Biol. Chem. 267, 23113 (1992)). The [3H]mevalonate is converted by the cells into [3H]farnesyl pyrophosphate and [3H]geranylgeranyl pyrophosphate, which are then attached to proteins (Kim, C. M., Goldstein, J. L., Brown, M. S. J. Biol. Chem. 267, 23113 (1992)). In the assay, stock cultures of Met18b-2 cells were seeded at a density of 3-105 cells per 60 mm dish in 3 ml of medium A (Dulbecco's modified Eagle medium/Ham's F12 medium (1:1, v/v) containing 100 U/ml penicillin and 100 μg/ml streptomycin) supplemented with 5% (v/v) fetal calf serum (FCS). On day 3, each monolayer was refed with 1 ml medium A supplemented with 1% FCS (dialyzed against 0.15 M NaCl). At this point the cells were treated with 100 μM compactin (see Brown, M. S., Faust, J. R., Goldstein, J. L., Kaneko, I., and Endo, A. J. Biol. Chem. 253, 1121 (1978)) which blocks the synthesis of unlabeled mevalonate within the cells. Each compound was dissolved at 25 mM in DMSO/10 mM DTT immediately before use and 10 μl of this solution added directly. After 2 hr incubation at 37° C., each monolayer received 100 μCi [3H]mevalonate (60 Ci/mmol, American Radiolabeled Chemicals, Inc.) added in 100 μl of the medium A, and the incubation continued for 4 hr. The cells were harvested by rinsing three times with 3 ml of 50 mM Tris-HCl/0.15 M NaCl (pH 7.5). 300 μl of lysis buffer (0.5X Dulbecco's phosphate-buffered saline containing 1% Triton X-100, 5 μg/ml leupeptin, 5 μg/ml pepstatin, 0.5 mM phenylmethylsulfonyl fluoride, and 0.05 U/ml aprotinin) was added to each monolayer. After incubation on ice for 5 mon, the lysates were centrifuged 30 sec in a microfuge at 12,000 g. The resulting supernatant was tranferred to a new tube, and each pellet was resuspended in 60 μl of lysis buffer. Protein concentrations were determined using the BCA protein assay reagent (Pierce) according to the manufacturer's instructions. Detergent-soluble (supernatant) and -insoluble (pellet) samples were mixed with 2X SDS sample buffer (see Laemmli, U. K. Nature 227, 680 (1970)) and heated at 95° C. for 5 min before electrophoresis. Each lane contained 90 μg protein, and was run on a 12.5% SDS-polyacrylamide gel. The gel was dried, treated with ENTENSIFY (NEN-DuPont), and exposed to Kodak XOMAT-AR film for 9 h at -80° C. to allow visualization of all prenylated proteins. Migration of [14C]methylated molecular weight standards (Amersham) were used as markers.
The results of this assay are shown in FIG. 3, using a final concentration of 250 μM for each inhibitor. […] As shown in the figure, none of the control peptides or control benzodiazepine-peptideomimetics altered the prenylation of proteins in intact cells.
Using the same cells and procedures followed above for Example 125, we measured the dose dependence upon the inhibition of farnesylation in intact cells. […] Compound 37B inhibited the famesylation of F1-3 detectably at 10 μM, and almost completely at 25 μM.
In this manner, it is possible to obtain data regarding the comparative potency of these inhibitors upon the level of intracellular farnesylation. We have chosen to report the EC90% values for these inhibitors as the concentration required for a reduction in the Triton- soluble labelling (denoted F-1, F-2, and F-3) to 90% of control cells (untreated).

[6] = target: T1, CAAX GG transferase (Rattus norvegicus, UniProt P53610+Q04631); assay: Inhibition of CAAX GG transferase (geranylgeranyltransferase); format: biochemical; settings: 31B (leucine) vs 27B (methionine); FIG. 2B
T1 construct: partially purified CAAX GG transferase; from tissue
T1 sequence (P53610 whole entry, one chain of several): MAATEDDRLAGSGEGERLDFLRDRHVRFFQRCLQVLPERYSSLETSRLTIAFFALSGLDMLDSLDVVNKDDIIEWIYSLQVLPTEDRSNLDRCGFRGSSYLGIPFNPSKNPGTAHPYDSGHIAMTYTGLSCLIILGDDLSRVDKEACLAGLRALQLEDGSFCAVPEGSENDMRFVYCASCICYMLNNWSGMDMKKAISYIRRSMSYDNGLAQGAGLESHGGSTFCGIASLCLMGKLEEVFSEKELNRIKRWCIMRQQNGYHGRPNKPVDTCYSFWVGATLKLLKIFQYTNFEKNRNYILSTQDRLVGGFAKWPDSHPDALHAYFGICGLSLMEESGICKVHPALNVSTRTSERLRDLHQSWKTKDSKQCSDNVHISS
Description: FIG. 1 compares the inhibitory activity of compound 27B (denoted as BG269B in the figure) on protein prenyltransferases. […] Two other prenyltransferases, both of which transfer 20-carbon geranylgeranyl (GG) groups, have been identified in rat brain. One of thesse, CAAX GG transferase, attaches GG groups to proteins that terminate in CAAX sequences in which X is leucine.
The conditions used to assay the inhibition of CAAX farnesyltransferase are identical to those described above for the in vitro, assay described in Example 121. In FIG. 1B the assay mixture contained, in a final volume of 50 μl, 50 mM sodium Hepes (pH 7.2), 5 mM MgC12, 5 mM DTT, 0.3 mM Nonidet P-40, 0.2% octyl β-glucoside, 1% DMSO, 0.5 μM all trans [3H]geranylgeranyl pyrophosphate (33,000 dpm/pmol; ARC, Inc.), 5 μM recombinant p21^H-rasCVLL, 6.3 μg partially purified CAAX GG transferase (see Seabra, M. C., Reiss, Y., Casey, P. J., Brown, M. S., and Goldstein, J. L. Cell 268, 4055 (1993)) and varying concentrations of the indicated inhibitor. In FIG. 1C, the assay mixture contained in a final volume of 50 μl, 50 mM sodium Hepes (pH 7.2), 5 mM MgCl2, 5 mM DTT, 0.3 mM Nonidet P-40, 0.2% octyl β-D-glucoside, 1% DMSO, 0.5 μM all trans [3H]geranylgeranyl pyrophosphate (33,000 dpm/pmol; ARC, Inc.), 2 μM recombinant Rab1A, 2 ng each of purified Components A and B of Rab GG transferase (see Seabra, M. C., Goldstein, J. L., Sudhof, T. C., and Brown, M. S. J. Biol. Chem. 267, 14497 (1992)) and varying concentrations of the indicated inhibitor.
Each assay was carried out as described in Examples 121 and 122.

[7] = system: nuclear lamins A and B in Met18b-2 cells; assay: [3H]mevalonate labeling of farnesylated nuclear lamins in Met18b-2 cells; format: cell-based, Chinese hamster; settings: 250 μM; FIG. 3
Description: To study farnesylation in intact cells we used Met18b-2 cells, a line of Chinese hamster ovary (CHO) cells that takes up [3H]mevalonate efficiently (see Faust, J., and Krieger, M. J. Biol. Chem. 262, 1966 (1987)) owing to the production of a mevalonate transport protein (see Kim, C. M., Goldstein, J. L., Brown, M. S. J. Biol. Chem. 267, 23113 (1992)). The [3H]mevalonate is converted by the cells into [3H]farnesyl pyrophosphate and [3H]geranylgeranyl pyrophosphate, which are then attached to proteins (Kim, C. M., Goldstein, J. L., Brown, M. S. J. Biol. Chem. 267, 23113 (1992)). In the assay, stock cultures of Met18b-2 cells were seeded at a density of 3-105 cells per 60 mm dish in 3 ml of medium A (Dulbecco's modified Eagle medium/Ham's F12 medium (1:1, v/v) containing 100 U/ml penicillin and 100 μg/ml streptomycin) supplemented with 5% (v/v) fetal calf serum (FCS). On day 3, each monolayer was refed with 1 ml medium A supplemented with 1% FCS (dialyzed against 0.15 M NaCl). At this point the cells were treated with 100 μM compactin (see Brown, M. S., Faust, J. R., Goldstein, J. L., Kaneko, I., and Endo, A. J. Biol. Chem. 253, 1121 (1978)) which blocks the synthesis of unlabeled mevalonate within the cells. […] Protein concentrations were determined using the BCA protein assay reagent (Pierce) according to the manufacturer's instructions. […]

[8] = system: low molecular weight GTP binding proteins (SMG) in Met18b-2 cells; assay: [3H]mevalonate labeling of low molecular weight GTP binding proteins (SMG) in Met18b-2 cells; format: cell-based, Chinese hamster; settings: 250 μM; FIG. 3
Description: as §2, with “The resulting supernatant was tranferred to a new tube, and each pellet was resuspended in 60 μl of lysis buffer.” left out, “Detergent-soluble (supernatant) and -insoluble (pellet) samples were mixed with 2X SDS sample buffer (see Laemmli, U. K. Nature 227, 680 (1970)) and heated at 95° C. for 5 min before electrophoresis. Each lane contained 90 μg protein, and was run on a 12.5% SDS-polyacrylamide gel. The gel was dried, treated with ENTENSIFY (NEN-DuPont), and exposed to Kodak XOMAT-AR film for 9 h at -80° C. to allow visualization of all prenylated proteins. Migration of [14C]methylated molecular weight standards (Amersham) were used as markers.” left out

For `CSCC[C@H](NC(=O)CN1C(=O)C(N(C)C(=O)[C@@H](N)CS)N=C(c2ccccc2)c2ccccc21)C(=O)O` (single isomer, unassigned) [27A], the “effect on morphology of src-transformed cells” value [1] was “not affected”, the “effect on transformed phenotype (morphology)” value [2] was “had no effect” and the “effect of control molecules on [3H]mevalonate incorporation” value [3] was “had no effect”. For the same compound, the “effect on morphology of untransformed cells” value [4] was “no apparent effect on the morphology of untransformed rat-1 fibroblasts”.

`CC(C)C[C@H](NC(=O)CN1C(=O)C(N(C)C(=O)[C@@H](N)CS)N=C(c2ccccc2)c2ccccc21)C(=O)O` (single isomer, unassigned) [31B, N-[[3-[(2-amino-3-mercapto-1-oxopropyl)methylamino]-2,3-dihydro-2-oxo-5-phenyl-1H -1,4-benzodiazepin-1-yl]acetyl]-L-leucine] was tested, and the “labeling of Triton-soluble farnesylated proteins (F1 to F3)” value [5] was “markedly decreased the labeling of all three Triton-soluble farnesylated proteins (F1 to F3)”, the “fold more sensitivity of CAAX geranylgeranyltransferase to leucine-terminated inhibitor” value [6] was 5 fold and the “labeling of farnesylated lamins (F-NL)” value [7] was “reduced moderately the labeling of the farnesylated lamins”. For the same compound, the “effect on low molecular weight GTP binding proteins (SMG)” value [8] was “little effect on the low molecular weight GTP binding proteins”.
